Results: paper PMC8700061, “Fragment-Sized and Bidentate (Immuno)Proteasome Inhibitors Derived from Cysteine and Threonine Targeting Warheads” (Cells, 2021)

Columns and labels:
GSH = assay: HPLC-based GSH reactivity assay; type: physicochemical; conditions: 5 mM glutathione (GSH) in PBS buffer; 250 µM compound, 5 mM GSH, PBS pH 7.4; read-out: Reactivity with GSH (HPLC-based assay), t1/2
Experimental: GSH reactivity assay was performed as described by Petri et al.; 500 μM solution of compound (PBS buffer pH 7.4, 10% MeCN, 250 μL) with 200 μM solution of indoprofen as internal standard were added to 10 mM GSH solution (dissolved in PBS buffer, 250 μL) in a 1:1 ratio. […] The final mixture was analyzed by HPLC after 0, 1, 2, 4, 8, 12, 24, 48, and 72 h. The degradation kinetics were also studied using the method described in [24], except that pure PBS buffer was used instead of GSH solution. […] The area under the curve (AUC) values were determined by integrating the HPLC spectra and then corrected with the internal standard.

[1] = HPLC-based stability assay in PBS; type: physicochemical; conditions: PBS pH 7.4
Experimental: GSH reactivity assay was performed as described by Petri et al.; 500 μM solution of compound (PBS buffer pH 7.4, 10% MeCN, 250 μL) with 200 μM solution of indoprofen as internal standard were added to 10 mM GSH solution (dissolved in PBS buffer, 250 μL) in a 1:1 ratio. The final concentration was 250 μM compound, 100 μM indoprofen, 5 mM GSH and 5% MeCN (500 μL). The final mixture was analyzed by HPLC after 0, 1, 2, 4, 8, 12, 24, 48, and 72 h. The degradation kinetics were also studied using the method described in [24], except that pure PBS buffer was used instead of GSH solution. In this experiment, the final concentration of the mixture was 250 μM fragment, 100 μM indoprofen and 5% MeCN. The area under the curve (AUC) values were determined by integrating the HPLC spectra and then corrected with the internal standard.

COc1cccc2oc(C#N)nc12 [Compound 6]
half-life at 250 µM (GSH): < 3 min
Stability in Buffer (HPLC-based assay) [1]: stable ^c,d

CC(C)C[C@H](NC(=O)CCn1c(C#N)nc2ccccc21)B1O[C@@H]2C[C@@H]3C[C@@H](C3(C)C)[C@]2(C)O1 [Compound 30]
Stability in Buffer (HPLC-based assay) [1]: stable ^b,c

CC(C)C[C@H](NC(=O)CCCn1c(C#N)nc2ccccc21)B1O[C@@H]2C[C@@H]3C[C@@H](C3(C)C)[C@]2(C)O1 [Compound 31]
Stability in Buffer (HPLC-based assay) [1]: stable ^b,c

CC(C)C[C@H](NC(=O)CCn1c(C#N)nc2cccc(Cl)c21)B1O[C@@H]2C[C@@H]3C[C@@H](C3(C)C)[C@]2(C)O1 [Compound 38]
Stability in Buffer (HPLC-based assay) [1]: stable ^b,c

CC(C)C[C@H](NC(=O)Cc1ccc2oc(C#N)nc2c1)B1O[C@@H]2C[C@@H]3C[C@@H](C3(C)C)[C@]2(C)O1 [Compound 39]
half-life at 250 µM (GSH): 3 to 60 min
Stability in Buffer (HPLC-based assay) [1]: stable ^b,c
